Results as given in patent US20090098189A1, “AZAINDOLES AS INHIBITORS OF SOLUBLE ADENYLATE CYCLASE” (priority 2007, published 2009).

Tests used:
[1] = target: soluble, sperm-specific adenylate cyclase (sAC) (Homo sapiens, UniProt Q96PN6); assay: sAC assay (HTRF cAMP detection); type: biochemical; conditions: read-out: IC50 (inhibition of soluble adenylate cyclase)
Source text: In a suitable buffer system, soluble, sperm-specific adenylate cyclase catalyzes the conversion of adenosine triphosphate (ATP) to cyclic adenosine monophosphate (cAMP) and pyrophosphate. Free cAMP generated in this way is then used in a competitive detection technique, in which the binding of a europium cryptate Eu[K]-labeled anti-cAMP antibody (anti-cAMP-Eu[K]-AB) to a modified allophycocyanine-1 molecule labeled with cAMP molecules (cAMP-XL665) is prevented. In the absence of exogenous cAMP, after excitation at 335 nm there is Fluorescence Resonance Energy Transfer (FRET) between the anti-cAMP-Eu[K]-AB (FRET donor) and the cAMP-XL665 molecule (FRET acceptor). This process is quantified, time-resolved, on the basis of the emission of the FRET acceptor XL665 (665 nm and 620 nm). A decrease in signal (measured as Well Ratio; calculated from the Formula: [(E665 nm/E620 nm)×10000]) can be attributed to the presence of cAMP and thus to the activity of sAC. First, 1.5 μl of the test substance (in 30% DMSO) is placed in each well of a 384-well test plate (polystyrene; 384, NV), and in the solvent controls only 30% DMSO. Then 10 μl of a dilute sAC enzyme solution is applied (enzyme stock solution in 300 mM NaCl, 10% glycerol; pH 7.6; enzyme intermediate and final dilution a) 1:10 and b) 1:2000 in each case in: 1.0 mM MnCl2; 0.2% BSA; 50 mM Tris pH 7.5 in H2O). The enzyme reaction is started by adding 5 μl of the ATP substrate solution (200 μM ATP in H2O) and after incubation (25 min at room temperature) stopped by adding 5 μl of the stop solution (200 μM EDTA in PBS). Finally the whole reaction is adjusted to a total volume of 91.5 μl by adding 70 μl PBS.
Next, 8 μl of detection solution 1 is placed in a well of the 384-well measuring plate (measuring plate: polystyrene; 384, SV—black; detection solution 1: 50 μl cAMP-XL665; 950 μl reconstituted buffer; 2200 μl PBS; cAMP-XL665: prepared by adding 5 ml H2O to the lyophilized product according to the instructions in Cis bio Kit: #62AMPPEC; storage: in aliquots at −80° C.). Next, 3 μl from the 91.5 μl is added to the corresponding well of the test plate. Finally, 8 μl of detection solution 2 is added (detection solution 2: 50 μl anti-cAMP-Eu[K]-AB; 950 μl reconstituted buffer; 2200 μl PBS; anti-cAMP-Eu[K]-AB: prepared according to the instructions in Cis bio Kit: #62AMPPEC; storage: in aliquots at −80° C.).
After further incubation for 90 min at room temperature, the HTRF result is measured either on the Packard Discovery or with the RubiStar HTRF measuring instrument (delay: 50 μs; integration time: 400 μs).

[2] = known from the literature; cited from earlier work

Chain of soluble, sperm-specific adenylate cyclase (sAC) (Q96PN6 whole entry): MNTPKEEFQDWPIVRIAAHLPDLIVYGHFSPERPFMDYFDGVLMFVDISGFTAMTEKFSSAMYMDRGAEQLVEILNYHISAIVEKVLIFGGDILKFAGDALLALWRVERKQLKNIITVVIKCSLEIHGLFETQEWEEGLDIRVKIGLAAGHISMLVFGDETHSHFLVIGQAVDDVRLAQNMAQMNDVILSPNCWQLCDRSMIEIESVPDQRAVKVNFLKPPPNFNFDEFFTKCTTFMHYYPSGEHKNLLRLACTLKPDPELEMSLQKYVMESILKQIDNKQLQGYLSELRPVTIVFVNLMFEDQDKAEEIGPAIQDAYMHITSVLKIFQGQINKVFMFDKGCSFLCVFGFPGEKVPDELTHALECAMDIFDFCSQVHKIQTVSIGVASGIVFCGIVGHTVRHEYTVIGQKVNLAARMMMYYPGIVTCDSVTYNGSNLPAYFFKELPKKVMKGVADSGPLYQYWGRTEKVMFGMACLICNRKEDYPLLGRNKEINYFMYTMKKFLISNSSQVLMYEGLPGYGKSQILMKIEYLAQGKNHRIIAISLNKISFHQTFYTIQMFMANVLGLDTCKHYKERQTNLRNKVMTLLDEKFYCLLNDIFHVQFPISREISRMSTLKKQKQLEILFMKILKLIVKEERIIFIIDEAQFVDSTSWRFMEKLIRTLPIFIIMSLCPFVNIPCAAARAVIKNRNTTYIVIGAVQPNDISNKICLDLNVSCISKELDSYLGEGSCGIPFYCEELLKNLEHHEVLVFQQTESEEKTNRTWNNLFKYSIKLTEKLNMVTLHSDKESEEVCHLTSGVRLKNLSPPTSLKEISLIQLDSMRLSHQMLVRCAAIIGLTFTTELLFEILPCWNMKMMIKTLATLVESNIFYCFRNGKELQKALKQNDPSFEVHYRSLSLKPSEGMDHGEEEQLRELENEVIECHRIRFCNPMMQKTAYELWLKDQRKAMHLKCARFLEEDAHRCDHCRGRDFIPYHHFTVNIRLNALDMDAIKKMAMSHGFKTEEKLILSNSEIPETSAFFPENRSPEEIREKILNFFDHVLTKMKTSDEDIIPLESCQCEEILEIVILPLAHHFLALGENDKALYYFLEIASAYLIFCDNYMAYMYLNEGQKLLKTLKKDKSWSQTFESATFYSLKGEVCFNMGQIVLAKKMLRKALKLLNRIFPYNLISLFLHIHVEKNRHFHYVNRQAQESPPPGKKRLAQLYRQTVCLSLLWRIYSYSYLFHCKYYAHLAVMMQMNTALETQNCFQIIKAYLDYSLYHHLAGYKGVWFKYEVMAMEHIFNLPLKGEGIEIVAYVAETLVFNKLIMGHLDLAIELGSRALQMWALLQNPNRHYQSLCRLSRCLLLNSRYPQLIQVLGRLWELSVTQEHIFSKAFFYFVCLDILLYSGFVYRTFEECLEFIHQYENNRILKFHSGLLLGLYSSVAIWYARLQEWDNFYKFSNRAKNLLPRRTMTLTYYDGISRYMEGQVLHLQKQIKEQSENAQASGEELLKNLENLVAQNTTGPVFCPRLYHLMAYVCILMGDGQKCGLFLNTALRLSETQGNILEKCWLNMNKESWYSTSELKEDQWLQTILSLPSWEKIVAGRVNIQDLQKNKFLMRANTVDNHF

| Structure (SMILES) | IC50 [1] [nM] | toxicity [2] |
| --- | --- | --- |
| O=C(N[C@H]1CCC[C@H]1O)c1[nH]c2ncc(NS(=O)(=O)c3ccc(C(F)(F)F)cc3)cc2c1-c1ccccc1 [Example 22, (1S,2R)—N-(2-Hydroxycyclopentyl)-3-phenyl-5-(4-trifluoromethyl-phenylsulfonylamino)-1H-pyrrolo[2,3-b]pyridine-2-carboxamide] | 25 |  |
| CC(C)(C)c1ccc(S(=O)(=O)Nc2cnc3[nH]c(C(=O)N[C@H]4CCC[C@H]4O)c(-c4ccccc4)c3c2)cc1 [Example 8, (1S,2R)—N-(2-Hydroxycyclopentyl)-5-(4-tert-butylphenylsulfonyl-amino)-3-phenyl-1H-pyrrolo[2,3-b]pyridine-2-carboxamide] | 13 |  |
| Cc1cc2c(C(C)C)c(O)c(O)c(C=O)c2c(O)c1-c1c(C)cc2c(C(C)C)c(O)c(O)c(C=O)c2c1O [gossypol] |  | inherently toxic |

Now from value to compound, other results behind:

| IC50 [1] [nM] | Structure (SMILES) | toxicity [2] |
| --- | --- | --- |
| 37 | CC(CO)NC(=O)c1[nH]c2ncc(NS(=O)(=O)c3ccc(C(C)(C)C)cc3)cc2c1-c1ccccc1 (racemic) [Example 6, (±)-N-(2-Hydroxy-1-methylethyl)-5-(4-tert-butylphenylsulfonyl-amino)-3-phenyl-1H-pyrrolo[2,3-b]pyridine-2-carboxamide] |  |
| 64 | CC(C)(C)c1ccc(S(=O)(=O)Nc2cnc3[nH]c(C(=O)NCC4CCCO4)c(-c4ccccc4)c3c2)cc1 (racemic) [Example 10, (±)-N-(Tetrahydrofuran-2-ylmethyl)-5-(4-tert-butylphenylsulfonyl-amino)-3-phenyl-1H-pyrrolo[2,3-b]pyridine-2-carboxamide] |  |
